In patent EP0572662B1, “SILVER HALIDE PHOTOGRAPHIC MATERIAL” (FUJI PHOTO FILM CO., LTD., priority 1991, dated 1993):

Assay: Speed of silver telluride formation in a silver halide emulsion (Kubelka-Munk reflectivity test)
Assay type: physicochemical
Conditions: octahedral silver bromide emulsion, 50°C, pH 6.3, pAg 8.3, telluride 1 × 10^-3 mol/mol Ag, reflectivity at 520 nm
Procedure: The speed with which silver telluride is formed in the silver halide emulsion can be determined by the following test.
When a tellurium sensitizer is added in a great amount (e.g., 1 × 10^-3 mol/mol Ag), the silver telluride formed absorbs light beam of the visible region. […] 181 (1966) and ibid., Vol. 16, p. 102 (1968) can be applied for sulfur sensitizers. Therefore, the relative speed at which silver telluride is formed can easily be obtained by the same method as used in determining the amount of silver sulfide formed in a silver halide emulsion from the infinite reflectivity of the emulsion to visible light beams (520 nm) in accordance the Kubelka-Munk formula. […]
An emulsion which contains octahedral silver bromide grains having an average size of 0.5 µm (containing 0.75 mol of AgBr and 80 g of gelatin per kilogram) is maintained at 50°C, while holding pH and pAg at 6.3 and 8.3, respectively. […] Then, the reflectivity (R) of the emulsion to light beams of 520 nm is detected at times by means of a spectrophotometer having an integrating sphere, using the reflectivity of a blank emulsion as reference. Every reflectivity, thus detected, is substituted in the Kubelka-Munk formula, (1-R)^2/2R. The time spend until the value of (1-R)^2/2R becomes 0.01 is measured. The pseudo-first-order reaction rate constant k (min-1) is determined from the time thus measured. […]

CC(C)CP(=[Te])(CC(C)C)CC(C)C [Compound 7, ((i)C4H9)3P = Te]
pseudo-first-order reaction rate constant k: ~0.004 min⁻¹

CC(C)P(=[Te])(C(C)C)C(C)C [Compound 4, ((i)C3H7)3P = Te]
pseudo-first-order reaction rate constant k: ~7e-05 min⁻¹
